Values joined by “and” are separate entries in the source; they are usually repeats but may differ in a detail not shown here. Equal values may be shown once. Where a name gives a salt, the structure may show the parent alone.
Assay: Solubility of psilocin salts in saline
Details: for XRPD of Residue: solid residue after 5 hrs in saline (Table 9)
[1] = Saline, updated summary (Table 10)
[2] = pH of saturated solution in saline (Table 9)

| Structure (SMILES) | pH at 5 hrs [1] | pH at 5 hrs [2] | XRPD of Residue | Solubility in Saline (Table 4 summary) [mg/mL] | pH at 5 hrs (Saline, updated summary (Table 10), hydrochloride) | pH at 5 hrs (pH of saturated solution in saline (Table 9), hydrochloride) |
| --- | --- | --- | --- | --- | --- | --- |
| CN(C)CCc1c[nH]c2cccc(O)c12.O=C(O)c1ccccc1O [Psilocin salicylate SAL Pattern 1, Psilocin salicylate] | 4.2 | 4.2 | SAL Pattern 1 |  |  |  |
| CN(C)CCc1c[nH]c2cccc(O)c12 [Psilocin free base, Psilocin, reference compound] | 9.8 and 9.9 | 9.8 and 9.9 | Freeform Pattern 1 |  |  |  |
| CN(C)CCc1c[nH]c2cccc(O)c12.O=C(O)c1ccccc1 [Psilocin benzoate BEN Pattern 1, Psilocin benzoate] | 6.8 and 6.9 | 6.8 and 6.9 | BEN Pattern 1 | 5.0 |  |  |
| CN(C)CCc1c[nH]c2cccc(O)c12 [Psilocin hydrochloride HCl Pattern 1, Psilocin hydrochloride] |  |  |  |  | 4.0 and 5.4 | 6.0 and 6.1 |
| CN(C)CCc1c[nH]c2cccc(O)c12.O=S(=O)(O)c1cccc2c(S(=O)(=O)O)cccc12 [Psilocin 1,5-napthalenedisulfonate NAP Pattern 1] | 2.0 | 2.0 | NAP Pattern 1 |  |  |  |

Source: US11680043B2 (priority 2021, dated 2023)
